Experimental data published in patent US20260042762A1 (Kymera Therapeutics, Inc., priority 2018, published 2026).
Structures can show the parent of a compound that is named as a salt.

Tests used:
MerTK [1] = target: T1, MerTK (Homo sapiens, UniProt Q12866); test: MerTk degradation in Jurkat cells (Western blot); format: cell-based; details: Jurkat, 4 h, 0.001-1 μM, 4 hour-incubation at 37° C., read-out: Jurkat Max % MerTK Degradation
T1 construct: endogenous in cells; host or cells: Jurkat cells
T1 sequence (Q12866 21-999): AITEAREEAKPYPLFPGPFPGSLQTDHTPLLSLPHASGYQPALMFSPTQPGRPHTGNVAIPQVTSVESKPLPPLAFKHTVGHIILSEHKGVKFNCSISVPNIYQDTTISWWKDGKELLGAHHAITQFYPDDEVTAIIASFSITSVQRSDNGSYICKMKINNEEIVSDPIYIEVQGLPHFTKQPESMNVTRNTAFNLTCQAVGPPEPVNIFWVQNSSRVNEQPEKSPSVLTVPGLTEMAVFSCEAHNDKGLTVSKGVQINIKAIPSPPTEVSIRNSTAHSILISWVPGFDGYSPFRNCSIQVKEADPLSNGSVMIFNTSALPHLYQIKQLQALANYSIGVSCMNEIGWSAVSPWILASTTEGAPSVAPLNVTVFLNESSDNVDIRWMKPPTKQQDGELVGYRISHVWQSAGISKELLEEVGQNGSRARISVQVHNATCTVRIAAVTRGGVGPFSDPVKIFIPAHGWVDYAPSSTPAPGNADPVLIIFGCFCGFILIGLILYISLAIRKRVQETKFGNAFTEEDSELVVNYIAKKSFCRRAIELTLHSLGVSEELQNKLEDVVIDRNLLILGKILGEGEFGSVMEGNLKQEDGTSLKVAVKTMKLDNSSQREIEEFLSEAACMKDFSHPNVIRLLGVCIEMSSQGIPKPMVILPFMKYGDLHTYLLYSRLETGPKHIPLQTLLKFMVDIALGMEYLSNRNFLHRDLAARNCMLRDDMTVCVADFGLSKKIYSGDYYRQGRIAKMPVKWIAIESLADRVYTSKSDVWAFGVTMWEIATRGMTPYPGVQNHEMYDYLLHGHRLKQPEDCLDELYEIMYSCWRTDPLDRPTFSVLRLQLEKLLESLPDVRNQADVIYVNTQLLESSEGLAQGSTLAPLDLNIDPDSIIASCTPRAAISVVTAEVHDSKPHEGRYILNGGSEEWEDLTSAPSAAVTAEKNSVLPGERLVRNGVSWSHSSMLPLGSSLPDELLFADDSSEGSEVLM
Method in brief: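 Jurkat cells treated 4 h at 37 °C with compound at 0.001-1 μM final. RIPA lysates quantified by BCA, then MerTK probed by Western blot against actin loading control with IR-dye secondaries and Odyssey imaging.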

MerTK [2] = target: T2, MerTK (Mus musculus, UniProt Q60805); test: MerTK degradation in RAW264 cells (Western blot); format: cell-based; details: RAW264.7, 0.001-1 μM, 4 hour-incubation at 37° C., read-out: RAW264 Max % MerTK Degradation
T2 construct: endogenous in cells; host or cells: RAW264 cells
T2 sequence (Q60805 19-994): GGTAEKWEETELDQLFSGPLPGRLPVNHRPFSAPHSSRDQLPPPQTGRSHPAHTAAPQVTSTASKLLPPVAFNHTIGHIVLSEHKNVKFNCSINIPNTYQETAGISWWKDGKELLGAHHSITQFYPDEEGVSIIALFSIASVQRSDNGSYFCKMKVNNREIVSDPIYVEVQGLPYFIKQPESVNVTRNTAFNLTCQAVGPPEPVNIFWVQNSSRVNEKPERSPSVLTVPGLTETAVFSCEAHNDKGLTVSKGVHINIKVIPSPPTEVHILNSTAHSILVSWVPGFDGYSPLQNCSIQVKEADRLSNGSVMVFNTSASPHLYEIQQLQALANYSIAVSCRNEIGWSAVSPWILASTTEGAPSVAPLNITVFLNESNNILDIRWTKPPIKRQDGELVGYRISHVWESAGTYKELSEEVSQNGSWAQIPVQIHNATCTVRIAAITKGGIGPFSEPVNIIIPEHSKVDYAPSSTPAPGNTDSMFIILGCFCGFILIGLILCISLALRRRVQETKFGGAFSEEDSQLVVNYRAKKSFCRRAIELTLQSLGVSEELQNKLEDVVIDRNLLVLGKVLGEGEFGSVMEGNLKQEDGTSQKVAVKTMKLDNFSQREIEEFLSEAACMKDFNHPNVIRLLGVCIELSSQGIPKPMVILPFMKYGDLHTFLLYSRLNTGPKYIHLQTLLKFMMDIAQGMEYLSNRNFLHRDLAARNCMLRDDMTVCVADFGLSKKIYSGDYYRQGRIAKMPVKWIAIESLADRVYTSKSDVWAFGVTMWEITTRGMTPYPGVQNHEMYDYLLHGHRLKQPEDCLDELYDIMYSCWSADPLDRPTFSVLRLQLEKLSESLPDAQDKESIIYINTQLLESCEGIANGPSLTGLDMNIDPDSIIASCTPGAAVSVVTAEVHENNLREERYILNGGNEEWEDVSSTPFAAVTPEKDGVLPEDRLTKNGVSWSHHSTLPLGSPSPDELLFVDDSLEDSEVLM
Description: Compounds were reconstituted in DMSO to make 10 mM stock solutions. RAW264 cells were maintained in DMEM medium containing 10% FBS. Cells were seeded into 6-well plates with 2×10^6 cells per well. 2 μL of diluted compounds were added to cells to the final concentration of 0.001-1 μM. After a 4 hour-incubation at 37° C., cells were washed with DPBS (1×) once. Then RIPA lysis buffer with Halt Protease and Phosphatase Inhibitor Cocktail was added directly to the cells and cells were then incubated on ice for 10 min, then lysate was harvested into 1.5 mL Eppendorf tubes and centrifuged at 14,000 rpm for 10 min at 4° C. and the supernatants were collected for Western blots.
The protein concentration of cell lysates was quantified with Pierce™ BCA Protein Assay Kit. […] BCA working reagents were prepared by mixing BCA reagent A with reagent B in 50: 1 ratio. 200 μL of the BCA working reagents were added to 25 μL of BCA standard or cell lysates in microplate, and mixed thoroughly on a plate shaker for 30 seconds. After incubation at 37° C. for 30 min, the absorbance of samples at 562 nm were measured with EnVision Plate Reader.
Protein lysates were prepared in NuPAGE™ LDS sample buffer and NuPAGE™ sample reducing agent, and incubated at 95° C. for 5 min. […] The proteins were transferred to low fluorescence PVDF membranes using the Trans-Blot Turbo Transfer System. Membranes were then blocked in Odyssey blocking buffer at RT for 1 h followed by primary incubation at 4° C. overnight. The primary antibodies were MerTK goat polyclonal antibody and actin mouse monoclonal antibody. Membranes were washed three times with TBST (1×), and then incubated with IR Dye 800 CW Donkey anti-goat and IR Dye 700 CW Goat anti-mouse secondary antibodies in 1:10,000 dilution at RT for 1 h. The Western blot images were obtained using Odyssey Imaging System.

| SMILES | Dmax (MerTK [1]) [%] | Dmax (MerTK [2]) [%] |
| --- | --- | --- |
| CCCCNc1ncc2c(-c3ccc(S(=O)(=O)N4CCN(C(=O)CCCCCCCCCCC(=O)N[C@H](C(=O)N5C[C@H](O)C[C@H]5C(=O)NCc5ccc(-c6scnc6C)cc5)C(C)(C)C)CC4)cc3)nn([C@H]3CC[C@H](O)CC3)c2n1 [I-27, (2S,4R)-1-((S)-2-(12-(4-((4-(6-(Butylamino)-1-(trans-4-hydroxycyclohexyl)-1H-pyrazolo[3,4-d]pyrimidin-3-yl)phenyl)sulfonyl)piperazin-1-yl)-12-oxododecanamido)-3,3-dimethylbutanoyl)-4-hydroxy-N-(4-(4-methylthiazol-5-yl)benzyl)pyrrolidine-2-carboxamide] | > 50 | > 50 |
| O=C1CCC(N2C(=O)c3cccc(NCCOCCOCCOCCOCCN4CCN(Cc5ccc(-c6cn([C@H]7CC[C@H](O)CC7)c7nc(NCCC8CC8)ncc67)cc5)CC4)c3C2=O)C(=O)N1 (stereo partly drawn) [I-14, 4-(15-[4-[(4-[2-[(2-Cyclopropylethyl)amino]-7-[trans-4-hydroxycyclohexyl]-7H-pyrrolo[2,3-d]pyrimidin-5-yl]phenyl)methyl]piperazin-1-yl]-4,7,10,13-tetraoxa-1-azapentadecan-1-yl)-2-(2,6-dioxopiperidin-3-yl)-2,3-dihydro-1H-isoindole-1,3-dione formate] | > 50 | > 50 |
| CCCCNc1ncc2c(-c3ccc(CN4CCN(CCOCCOCCOCCCc5ccc6c(c5)n(C)c(=O)n6C5CCC(=O)NC5=O)CC4)cc3)cn([C@H]3CC[C@H](O)CC3)c2n1 (stereo partly drawn) [I-40, 3-(5-[3-[2-(2-[2-[4-([4-[2-(Butylamino)-7-[trans-4-hydroxycyclohexyl]-7H-pyrrolo[2,3-d]pyrimidin-5-yl]phenyl]methyl)piperazin-1-yl]ethoxy]ethoxy)ethoxy]propyl]-3-methyl-2-oxo-2,3-dihydro-1H-1,3-benzodiazol-1-yl)piperidine-2,6-dione formic acid] | > 50 | > 50 |
